The subject of one assay is K562. In words: Cytotoxicity against human K562 cells after 48 hrs by MTT assay. In kind it is functional, cell-based. The following applies: K562, 48 h.
The subject of the next assay is HL-60. In words: Cytotoxicity against human HL60 cells after 48 hrs by MTT assay. Format: functional, cell-based. The settings on record: HL-60, 48 h.
Another assay deals with A549. In words: Cytotoxicity against human A549 cells after 48 hrs by MTT assay. Format: functional, cell-based. The following applies: A549, 48 h.
The subject of another assay is HeLa. In words: Cytotoxicity against human HeLa cells after 48 hrs by MTT assay. In kind it is functional, cell-based.
The target in assay [1] is DNA topoisomerase 2-alpha (Homo sapiens) (UniProt P11388). Briefly: Inhibition of human topoisomerase-2 assessed as reduction in relaxation of pBR322 plasmid DNA at 20 uM measured after 30 mins by agarose gel electrophoresis.
Assay [2] has the same target. In words: Inhibition of human topoisomerase-2 assessed as reduction in relaxation of pBR322 plasmid DNA at 10 uM measured after 30 mins by agarose gel electrophoresis.
The target of assay [3] is T1, Topoisomerase I (Bos taurus) (UniProt Q2HPH0).
T1 sequence (whole entry): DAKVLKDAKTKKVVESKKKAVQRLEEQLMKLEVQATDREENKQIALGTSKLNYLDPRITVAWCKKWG
In words: Inhibition of calf thymus topoisomerase-1 assessed as reduction in relaxation of pBR322 plasmid DNA at 100 uM measured after 30 mins by agarose gel electrophoresis.

Assay [4] has as its target DNA topoisomerase 2-alpha (Homo sapiens) (UniProt P11388). In words: Inhibition of human topoisomerase-2 assessed as DNA intercalation by measuring relaxation of supercoiled pBR322 plasmid DNA at 0.3 to 2.5 uM after 6 mins by agarose gel electrophoresis.
The target is the same in assay [5]. In words: Poison activity at human topoisomerase-2 assessed as linear DNA formation by measuring relaxation of supercoiled pBR322 plasmid DNA at 50 uM after 6 mins by agarose gel electrophoresis.
Assay [6] has as its target DNA topoisomerase 1 (Homo sapiens) (UniProt P11387). In words: Inhibition of human topoisomerase-1 assessed as DNA intercalation by measuring relaxation of supercoiled pBR322 plasmid DNA after 6 mins by agarose gel electrophoresis.

Molecules are shown by their SMILES. The source made the active and inactive calls. The rule behind the calls is not given here. Some results are limits rather than exact numbers.

Chain of DNA topoisomerase 2-alpha (Homo sapiens) (P11388 whole entry): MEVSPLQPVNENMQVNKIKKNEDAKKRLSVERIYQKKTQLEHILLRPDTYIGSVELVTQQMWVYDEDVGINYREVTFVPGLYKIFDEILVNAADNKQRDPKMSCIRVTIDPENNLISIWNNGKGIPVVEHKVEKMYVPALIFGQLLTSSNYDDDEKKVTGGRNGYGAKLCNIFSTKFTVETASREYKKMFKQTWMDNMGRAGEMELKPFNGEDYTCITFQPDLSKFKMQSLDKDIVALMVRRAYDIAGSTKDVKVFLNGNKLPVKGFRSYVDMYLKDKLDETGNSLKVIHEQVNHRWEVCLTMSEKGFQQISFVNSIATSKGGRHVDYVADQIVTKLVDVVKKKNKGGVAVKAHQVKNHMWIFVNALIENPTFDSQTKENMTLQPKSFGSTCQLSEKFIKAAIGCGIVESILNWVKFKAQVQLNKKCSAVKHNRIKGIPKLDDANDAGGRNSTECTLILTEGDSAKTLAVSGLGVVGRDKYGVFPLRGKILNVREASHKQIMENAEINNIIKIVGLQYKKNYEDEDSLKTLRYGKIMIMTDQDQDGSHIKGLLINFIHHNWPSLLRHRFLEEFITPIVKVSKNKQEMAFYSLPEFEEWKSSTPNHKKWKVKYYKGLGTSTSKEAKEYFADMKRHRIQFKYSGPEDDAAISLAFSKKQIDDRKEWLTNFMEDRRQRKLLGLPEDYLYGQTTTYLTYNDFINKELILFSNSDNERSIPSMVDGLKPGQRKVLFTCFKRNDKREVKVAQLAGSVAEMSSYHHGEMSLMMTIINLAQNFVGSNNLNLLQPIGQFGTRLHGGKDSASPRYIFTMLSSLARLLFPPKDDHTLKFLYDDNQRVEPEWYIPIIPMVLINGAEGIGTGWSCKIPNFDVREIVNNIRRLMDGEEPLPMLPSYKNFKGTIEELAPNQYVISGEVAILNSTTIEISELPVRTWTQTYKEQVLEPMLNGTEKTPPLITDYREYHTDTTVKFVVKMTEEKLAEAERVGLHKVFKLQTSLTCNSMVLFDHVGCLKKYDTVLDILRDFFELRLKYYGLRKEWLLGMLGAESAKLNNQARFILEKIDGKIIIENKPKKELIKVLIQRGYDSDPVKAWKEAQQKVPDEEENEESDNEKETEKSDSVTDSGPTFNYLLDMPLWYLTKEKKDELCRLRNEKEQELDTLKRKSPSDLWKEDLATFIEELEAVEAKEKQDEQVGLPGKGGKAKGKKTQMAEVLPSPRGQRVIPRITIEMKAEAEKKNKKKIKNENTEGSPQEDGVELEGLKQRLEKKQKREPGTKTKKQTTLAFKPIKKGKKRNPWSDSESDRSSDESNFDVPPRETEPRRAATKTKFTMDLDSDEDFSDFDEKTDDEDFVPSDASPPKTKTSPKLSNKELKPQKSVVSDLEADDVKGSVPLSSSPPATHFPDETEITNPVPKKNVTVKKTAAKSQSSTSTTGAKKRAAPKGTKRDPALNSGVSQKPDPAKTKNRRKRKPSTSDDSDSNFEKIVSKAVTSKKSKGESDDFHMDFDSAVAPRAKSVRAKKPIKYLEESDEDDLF
Chain of DNA topoisomerase 1 (Homo sapiens) (P11387 whole entry, looked up): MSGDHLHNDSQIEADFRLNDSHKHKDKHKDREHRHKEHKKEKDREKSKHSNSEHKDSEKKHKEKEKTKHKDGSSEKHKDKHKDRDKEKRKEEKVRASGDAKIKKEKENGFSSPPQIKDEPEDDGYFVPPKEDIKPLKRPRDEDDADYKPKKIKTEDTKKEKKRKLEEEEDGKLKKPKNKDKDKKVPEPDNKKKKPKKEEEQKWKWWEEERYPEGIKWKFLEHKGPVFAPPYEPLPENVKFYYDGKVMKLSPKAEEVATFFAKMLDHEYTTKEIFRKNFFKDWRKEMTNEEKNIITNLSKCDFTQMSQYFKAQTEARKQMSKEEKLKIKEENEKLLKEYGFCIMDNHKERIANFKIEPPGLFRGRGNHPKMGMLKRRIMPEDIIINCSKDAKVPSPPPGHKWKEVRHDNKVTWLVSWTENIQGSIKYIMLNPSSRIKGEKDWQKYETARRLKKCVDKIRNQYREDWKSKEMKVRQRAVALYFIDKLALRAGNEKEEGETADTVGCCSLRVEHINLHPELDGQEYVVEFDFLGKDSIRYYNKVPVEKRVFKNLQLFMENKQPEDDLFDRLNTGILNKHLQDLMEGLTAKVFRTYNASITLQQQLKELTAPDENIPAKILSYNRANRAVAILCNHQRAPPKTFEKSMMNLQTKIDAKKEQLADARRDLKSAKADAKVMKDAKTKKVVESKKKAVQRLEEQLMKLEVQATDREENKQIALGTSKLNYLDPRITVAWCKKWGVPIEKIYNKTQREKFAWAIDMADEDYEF

On to `O=C(O)CN1C(=O)/C(=C/c2ccc3c(c2)c2ccccc2n3Cc2ccc([N+](=O)[O-])cc2)SC1=S`, for which the IC50 with K562 stood at 2.7 µM; in the assay on HL-60 it was 0.96 µM; in the assay on A549, 3.94 µM; in the assay with HeLa, 7.51 µM. The inhibition result in assay [1] and in [2] was “Active” each time. Moreover, the inhibition entry in assay [3] was “inactive”.
For the compound `CC[n+]1c(-c2ccccc2)c2cc(N)ccc2c2ccc(N)cc21`, in assay [4], the inhibition result is “Active”.
As to `O=C(O)CN1C(=O)/C(=C/c2ccc3c(c2)c2ccccc2n3Cc2ccc(Br)cc2F)SC1=S`, the concentration for half-maximal inhibition (IC50) in the assay on K562 came out at 6.92 µM; in the assay with HL-60 it was 3.51 µM; in the assay with A549, 9.44 µM; with HeLa, 11.7 µM. In assay [1], the inhibition result is “Active”. The inhibition result in assay [3] was “inactive”.
As for `CC[C@@]1(O)C(=O)OCc2c1cc1n(c2=O)Cc2cc3ccccc3nc2-1`, the inhibition result in assay [3] was “Active”.
For `Cc1ccc(Cn2c3ccccc3c3cc(/C=C4\SC(=S)N(CC(=O)O)C4=O)ccc32)cc1`, the IC50 was 29.6 µM with K562, 17.8 µM in the assay with HL-60, greater than 50 µM with A549 and greater than 50 µM in the assay with HeLa. Moreover, the inhibition result in assay [1] and in assay [3] was “inactive” in each case.
In the case of `O=C(O)CN1C(=O)/C(=C/c2ccc3c(c2)c2ccccc2n3Cc2ccc(C(F)(F)F)cc2)SC1=S`, the IC50 with K562 was determined as 2.16 µM; in the assay on HL-60 it was 0.71 µM; in the assay with A549 it was 3.4 µM; with HeLa it was 8.2 µM. Besides, the inhibition result in assay [1] was “Active”. For the same compound, in [3], the inhibition entry is “inactive”. In addition, the outcome in [5] was inactive. Besides, in assay [6], the inhibition result is “Dose-dependent effect”.
For the compound `O=C(O)CN1C(=O)/C(=C/c2ccc3c(c2)c2ccccc2n3Cc2ccc(Cl)cc2)SC1=S`, the IC50 is 13.4 µM with K562, 4.86 µM in the assay on HL-60, 16.2 µM with A549 and 28.3 µM in the assay on HeLa. Further, the inhibition entry in [1] and in assay [3] was “inactive” each time.
On to `O=C(O)CN1C(=O)/C(=C/c2ccc3c(c2)c2ccccc2n3Cc2ccc(F)c(F)c2)SC1=S`, for which the IC50 was 7.31 µM in the assay on K562, 4.17 µM in the assay on HL-60, 12.4 µM in the assay with A549 and 15.1 µM in the assay with HeLa. In assay [1], the inhibition result was “Active”. Besides, the inhibition result in [3] was “inactive”.
As for `N#Cc1ccc(Cn2c3ccccc3c3cc(/C=C4\SC(=S)N(CC(=O)O)C4=O)ccc32)cc1`, the IC50 stood at 1.85 µM in the assay with K562, 0.43 µM in the assay on HL-60, 2.18 µM with A549 and 5.06 µM in the assay with HeLa. In addition, the inhibition entry in assay [1] was “Active”. The inhibition entry in [3] was “inactive”. Further, in assay [5], the outcome was inactive. Moreover, the inhibition result in assay [6] was “Dose-dependent effect”.
For `O=C(O)CN1C(=O)/C(=C/c2ccc3c(c2)c2ccccc2n3Cc2ccccc2)SC1=S`, the IC50 with K562 was 21.4 µM; with HL-60 it was 14.6 µM; with A549, 32.2 µM; with HeLa, greater than 50 µM. Further, the inhibition entry in assay [1] and in [3] was “inactive” throughout.
For the compound `O=C(O)CN1C(=O)/C(=C/c2ccc3c(c2)c2ccccc2n3Cc2cccc(F)c2)SC1=S`, the IC50 was 12.8 µM in the assay with K562, 8.29 µM with HL-60, 19.8 µM in the assay with A549 and greater than 50 µM in the assay with HeLa. Also, the inhibition result in assay [1] and in assay [3] was “inactive” each time.
Consider `O=C(O)CN1C(=O)/C(=C/c2ccc3c(c2)c2ccccc2n3Cc2ccc(F)cc2F)SC1=S`, for which the concentration for half-maximal inhibition (IC50) with K562 was 12.6 µM; with HL-60 it was 3.84 µM; in the assay with A549 it was 22.6 µM; in the assay on HeLa, greater than 50 µM. The inhibition entry in [1] and in [3] was “inactive” throughout.
Turning to `O=C(O)CN1C(=O)/C(=C/c2ccc3c(c2)c2ccccc2n3Cc2ccc(Br)cc2)SC1=S`, the IC50 is 28 µM in the assay with K562, 12.7 µM with HL-60, greater than 50 µM with A549 and greater than 50 µM in the assay on HeLa. In addition, the inhibition result in [1] and in [3] was “inactive” in each case.
As for `O=C(O)CN1C(=O)/C(=C/c2ccc3c(c2)c2ccccc2n3Cc2ccccc2F)SC1=S`, the half-maximal inhibitory concentration (IC50) with K562 is 11.8 µM; in the assay on HL-60 it was 1.82 µM; in the assay with A549, 13.6 µM; with HeLa, 21.3 µM. Besides, the inhibition result in assay [1] and in [3] was “inactive” throughout.
Turning to `O=C(O)CN1C(=O)/C(=C/c2ccc3c(c2)c2ccccc2n3Cc2ccc(F)cc2)SC1=S`, the IC50 was 19.1 µM with K562, 8.57 µM with HL-60, greater than 50 µM with A549 and greater than 50 µM with HeLa. Besides, the inhibition entry in assay [1] was “Active”. Moreover, the inhibition entry in assay [3] is “inactive”.
On to `COc1cc([C@@H]2c3cc4c(cc3[C@@H](O[C@@H]3O[C@@H]5CO[C@@H](C)O[C@H]5[C@H](O)[C@H]3O)[C@H]3COC(=O)[C@H]23)OCO4)cc(OC)c1O` [ETOPOSIDE], for which the IC50 in the assay with HeLa is 32 µM. Moreover, the inhibition result in [1] is “Active”.

Values taken from ChEMBL document CHEMBL4184309, “Synthesis and biological evaluation of novel carbazole-rhodanine conjugates as topoisomerase II inhibitors” (Bioorg Med Chem Lett, 2018).
